This is an account of results in US20250312499A1, “KISSPEPTIN RECEPTOR (KISS1R) TARGETED THERAPEUTICS AND USES THEREOF” (priority 2024, published 2025).

This test has as its target human kisspeptin receptor (Homo sapiens (Human), UniProt Q969F8). The experiment in a line: Human KISS1R binding assay (membrane competition binding). The following applies: 90 min at room temperature; competition with 0.2 nM [125I]-metastin (45-54); Flp-In T-Rex 293 kisspeptin membranes; metal complexes nonradioactive Ga, In, Lu; read-out: hKiSSR Binding Ki (90 min). In outline: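 Radioligand competition: 0.2 nM [125I]-metastin (45-54) displaced by test ligand (usually 0–10,000 nM) over 90 min at room temperature, pH 7.4 buffer with 0.1% BSA. Receptor source is crude membrane (5–10 μg) from tetracycline-induced Flp-In T-Rex 293 cells. Bound label filtered and counted; Ki from non-linear regression.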

Numbered stars: 1 amine (or outer) side, 2 acyl side, 3 side chain; on linkers, the order of the positions; unused ones are H or OH. Square brackets hold non-standard residues; d marks the D form. Peptide text beside a SMILES is read from it. * marks the point of attachment. DOTA = O=C(O)CN1CCN(CC(=O)O)CCN(CC(=O)*)CCN(CC(=O)O)CC1; Gly(N-(3-F-4-Me-benzyl)) = Cc1ccc(CNCC(=O)*)cc1F; Butanoyl(4-(4-I-phenyl)) = O=C(CCCc1ccc(I)cc1)*; Propanoyl(3-(MeO(CH2CH2O)2)) = COCCOCCOCCC(=O)*; Bpa = N[C@@H](Cc1ccc(C(=O)c2ccccc2)cc1)C(=O)O; Gly(Nα-4-MeO-benzyl) = COc1ccc(CNCC(=O)*)cc1; Api(1-amidino) = N=C(N)N1CCC(N)(C(=O)O)CC1; Phe(3-F) = N[C@@H](Cc1cccc(F)c1)C(=O)O; 2Nal = N[C@@H](Cc1ccc2ccccc2c1)C(=O)O; d2Nal = N[C@H](Cc1ccc2ccccc2c1)C(=O)O; X1 = O=C(CN1CCC(N[*:1])CC1)[*:2]; 4Pal = N[C@@H](Cc1ccncc1)C(=O)O; Cha = N[C@@H](CC1CCCCC1)C(=O)O; X5 = O=C(CNCc1ccc2ccccc2c1)*; Api = NC1(C(=O)O)CCNCC1; PEG2 = NCCOCCOCCC(=O)O; Ahx = NCCCCCC(=O)O; azaGly = NNC(=O)O; Sar = CNCC(=O)O

human kisspeptin receptor, sequence (Q969F8 whole entry): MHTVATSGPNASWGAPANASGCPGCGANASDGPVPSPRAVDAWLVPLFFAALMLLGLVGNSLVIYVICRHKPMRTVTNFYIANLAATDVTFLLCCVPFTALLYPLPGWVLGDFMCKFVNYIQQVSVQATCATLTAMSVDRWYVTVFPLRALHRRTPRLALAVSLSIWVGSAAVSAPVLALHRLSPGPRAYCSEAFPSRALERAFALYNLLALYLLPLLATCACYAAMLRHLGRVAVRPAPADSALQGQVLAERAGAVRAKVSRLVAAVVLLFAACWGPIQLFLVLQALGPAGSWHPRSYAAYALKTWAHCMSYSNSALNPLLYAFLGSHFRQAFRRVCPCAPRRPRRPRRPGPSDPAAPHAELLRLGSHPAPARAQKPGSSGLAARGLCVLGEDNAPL

Regarding `CC(C)C[C@H](NC(=O)NNC(=O)[C@H](Cc1ccccc1)NC(=O)[C@@H](NC(=O)[C@H](CC(N)=O)NC(=O)[C@H](Cc1ccc(C(=O)c2ccccc2)cc1)NC(=O)[C@@H](Cc1ccc(O)cc1)NC(=O)CCCCCNC(=O)CN1CCN(CC(=O)O)CCN(CC(=O)O)CCN(CC(=O)O)CC1)[C@@H](C)O)C(=O)NC1(C(=O)N[C@@H](Cc2c[nH]c3ccccc23)C(N)=O)CCN(C(=N)N)CC1` [Compound 183] ({DOTA-Ahx}-[dY][Bpa]NTF[azaGly]L[Api(1-amidino)]W-NH2), the inhibition constant (Ki) (in general, the dissociation constant of the complex between target and ligand, obtained from inhibition or displacement) was under 10 nM. To `CC(C)C[C@H](NC(=O)NNC(=O)[C@H](Cc1ccccc1)NC(=O)[C@@H](NC(=O)[C@H](CC(N)=O)NC(=O)[C@@H](Cc1ccc2ccccc2c1)NC(=O)[C@@H](Cc1ccc(O)cc1)NC(=O)CCCCCNC(=O)CN1CCN(CC(=O)O)CCN(CC(=O)O)CCN(CC(=O)O)CC1)[C@@H](C)O)C(=O)NC1(C(=O)N[C@H](Cc2c[nH]c3ccccc23)C(N)=O)CCN(C(=O)CNCc2ccc3ccccc3c2)CC1` [Compound 376] ({DOTA-Ahx}-[dY][d2Nal]NTF[azaGly]L[Api](X5)[dW]-NH2) belongs 10 to 100 nM; to `CNCC(=O)N1CCC(NC(=O)[C@H](CC(C)C)NC(=O)NNC(=O)[C@H](Cc2ccccc2)NC(=O)[C@@H](NC(=O)[C@H](CC(N)=O)NC(=O)[C@@H](Cc2ccc3ccccc3c2)NC(=O)[C@H](N)Cc2ccc(O)cc2)[C@@H](C)O)(C(=O)N[C@@H](Cc2ccccc2)C(N)=O)CC1` [Compound 406] (H-[dY][d2Nal]NTF[azaGly]L[Api](Sar)F-NH2), under 10 nM; to `CC(C)C[C@H](NC(=O)NNC(=O)[C@H](Cc1ccccc1)NC(=O)[C@@H](NC(=O)[C@H](CC(N)=O)NC(=O)[C@@H](Cc1ccc2ccccc2c1)NC(=O)[C@@H](Cc1ccc(O)cc1)NC(=O)[C@@H](CCCCNC(=O)CCCc1ccc(I)cc1)NC(=O)CCCCCNC(=O)CN1CCN(CC(=O)O)CCN(CC(=O)O)CCN(CC(=O)O)CC1)[C@@H](C)O)C(=O)NC1(C(=O)N[C@@H](Cc2c[nH]c3ccccc23)C(N)=O)CCN(C(=N)N)CC1` [Compound 336] ({DOTA-Ahx}-[dK](Butanoyl(4-(4-I-phenyl)))[dY][d2Nal]NTF[azaGly]L[Api(1-amidino)]W-NH2), under 10 nM.

For the compound `Cc1ccc(CNCC(=O)N2CCC(NC(=O)[C@H](CC(C)C)NC(=O)NNC(=O)[C@H](Cc3ccccc3)NC(=O)[C@@H](NC(=O)[C@H](CC(N)=O)NC(=O)[C@@H](Cc3c[nH]c4ccccc34)NC(=O)[C@H](N)Cc3ccc(O)cc3)[C@@H](C)O)(C(=O)N[C@@H](Cc3c[nH]c4ccccc34)C(N)=O)CC2)cc1F` [Compound 402] (H-[dY][dW]NTF[azaGly]L[Api](Gly(N-(3-F-4-Me-benzyl)))W-NH2), the inhibition constant (Ki) is under 10 nM. For the compound `CC(C)C[C@H](NC(=O)NNC(=O)[C@H](Cc1ccccc1)NC(=O)[C@@H](NC(=O)[C@H](CC(N)=O)NC(=O)[C@@H](Cc1ccc2ccccc2c1)NC(=O)[C@H](N)Cc1ccc(O)cc1)[C@@H](C)O)C(=O)NC1(C(=O)N[C@@H](Cc2c[nH]c3ccccc23)C(N)=O)CCN(C(=N)N)CC1` [Compound 411] (H-[dY][d2Nal]NTF[azaGly]L[Api(1-amidino)]W-NH2), the Ki was under 10 nM. To `Cc1ccc(CNCC(=O)N2CCC(NC(=O)[C@H](CC(C)C)NC(=O)NNC(=O)[C@H](Cc3ccccc3)NC(=O)[C@@H](NC(=O)CN3CCC(NC(=O)CN4CCN(CC(=O)O)CCN(CC(=O)O)CCN(CC(=O)O)CC4)CC3)[C@@H](C)O)(C(=O)N[C@@H](Cc3c[nH]c4ccccc34)C(N)=O)CC2)cc1F` [Compound 233] ({DOTA}-[X1]TF[azaGly]L[Api](Gly(N-(3-F-4-Me-benzyl)))W-NH2) belongs under 10 nM; to `COCCOCCOCCC(=O)N[C@H](Cc1ccc(O)cc1)C(=O)N[C@@H](CCCCNC(=O)CN1CCN(CC(=O)O)CCN(CC(=O)O)CCN(CC(=O)O)CC1)C(=O)N[C@@H](CC(N)=O)C(=O)N[C@H](C(=O)N[C@@H](Cc1ccccc1)C(=O)NNC(=O)N[C@@H](CC(C)C)C(=O)NC1(C(=O)N[C@@H](Cc2c[nH]c3ccccc23)C(N)=O)CCN(C(=N)N)CC1)[C@@H](C)O` [Compound 197] ({Propanoyl(3-(MeO(CH2CH2O)2))}-[dY]K(DOTA)NTF[azaGly]L[Api(1-amidino)]W-NH2), under 10 nM. To `CC(C)C[C@H](NC(=O)NNC(=O)[C@H](Cc1ccccc1)NC(=O)[C@@H](NC(=O)[C@H](CC(N)=O)NC(=O)[C@@H](Cc1ccc2ccccc2c1)NC(=O)[C@@H](Cc1ccc(O)cc1)NC(=O)[C@@H](CCCCNC(=O)CCCc1ccc(I)cc1)NC(=O)CCCCCNC(=O)CN1CCN(CC(=O)O)CCN(CC(=O)O)CCN(CC(=O)O)CC1)[C@@H](C)O)C(=O)NC1(C(=O)N[C@@H](Cc2ccccc2)C(N)=O)CCN(C(=N)N)CC1` [Compound 310] ({DOTA-Ahx}-[dK](Butanoyl(4-(4-I-phenyl)))[dY][d2Nal]NTF[azaGly]L[Api(1-amidino)]F-NH2) belongs under 10 nM.

`Cc1ccc(CNCC(=O)N2CCC(NC(=O)[C@H](CC(C)C)NC(=O)NNC(=O)[C@H](Cc3ccccc3)NC(=O)CCCCCNC(=O)[C@H](Cc3ccc4ccccc4c3)NC(=O)[C@@H](Cc3ccc(O)cc3)NC(=O)CN3CCN(CC(=O)O)CCN(CC(=O)O)CCN(CC(=O)O)CC3)(C(=O)N[C@@H](Cc3c[nH]c4ccccc34)C(N)=O)CC2)cc1F` [Compound 285] ({DOTA}-[dY][2Nal][Ahx]F[azaGly]L[Api](Gly(N-(3-F-4-Me-benzyl)))W-NH2): the Ki is under 10 nM. On to `CC(C)C[C@H](NC(=O)NNC(=O)[C@H](Cc1ccccc1)NC(=O)[C@@H](NC(=O)[C@H](CC(N)=O)NC(=O)[C@@H](Cc1ccc2ccccc2c1)NC(=O)[C@@H](Cc1ccc(O)cc1)NC(=O)CCOCCOCCN)[C@@H](C)O)C(=O)NC1(C(=O)N[C@@H](Cc2c[nH]c3ccccc23)C(N)=O)CCN(C(=N)N)CC1` [Compound 410] (H-[PEG2][dY][d2Nal]NTF[azaGly]L[Api(1-amidino)]W-NH2), for which the Ki was under 10 nM. The value for `CC(C)C[C@H](NC(=O)NNC(=O)[C@H](CC1CCCCC1)NC(=O)[C@@H](NC(=O)[C@H](CC(N)=O)NC(=O)[C@@H](Cc1ccc2ccccc2c1)NC(=O)[C@@H](Cc1ccc(O)cc1)NC(=O)CCCCCNC(=O)CN1CCN(CC(=O)O)CCN(CC(=O)O)CCN(CC(=O)O)CC1)[C@@H](C)O)C(=O)NC1(C(=O)N[C@@H](Cc2c[nH]c3ccccc23)C(N)=O)CCN(C(=N)N)CC1` [Compound 317] ({DOTA-Ahx}-[dY][d2Nal]NT[Cha][azaGly]L[Api(1-amidino)]W-NH2) was under 10 nM; that for `Cc1ccc(CNCC(=O)N2CCC(NC(=O)[C@H](CC(C)C)NC(=O)NNC(=O)[C@H](Cc3cccc(F)c3)NC(=O)[C@@H](NC(=O)[C@H](CC(N)=O)NC(=O)[C@H](CCC(=O)O)NC(=O)[C@@H](Cc3ccc(O)cc3)NC(=O)CN3CCC(NC(=O)CN4CCN(CC(=O)O)CCN(CC(=O)O)CCN(CC(=O)O)CC4)CC3)[C@@H](C)O)(C(=O)N[C@@H](Cc3c[nH]c4ccccc34)C(N)=O)CC2)cc1F` [Compound 24] ({DOTA}-[X1][dY]ENT[Phe(3-F)][azaGly]L[Api](Gly(N-(3-F-4-Me-benzyl)))W-NH2) was under 10 nM. The value for `COc1ccc(CNCC(=O)N2CCC(NC(=O)[C@H](CC(C)C)NC(=O)NNC(=O)[C@H](Cc3ccccc3)NC(=O)[C@@H](NC(=O)[C@H](CC(N)=O)NC(=O)[C@@H](Cc3c[nH]c4ccccc34)NC(=O)[C@@H](Cc3ccc(O)cc3)NC(=O)CCCCCNC(=O)CN3CCN(CC(=O)O)CCN(CC(=O)O)CCN(CC(=O)O)CC3)[C@@H](C)O)(C(=O)N[C@@H](Cc3ccncc3)C(N)=O)CC2)cc1` [Compound 293] ({DOTA-Ahx}-[dY][dW]NTF[azaGly]L[Api](Gly(Nα-4-MeO-benzyl))[4Pal]-NH2) was under 10 nM.
